Assay results: patent publication US12139492B2 (Endotarget Inc., priority 2021, dated 2024)
Where two headings read alike, the source gives them in different places.

Key:
BTK = BTK (Homo sapiens, UniProt Q06187); test: Degradation of BTK protein in Namalwa cells (Western blot; DC50, Dmax); conditions: for DC50: cell line not given
Mino cells = test: Antiproliferative effect, MTS cell viability assay, Mino cells; assay type: cell-based; conditions: Homo sapiens, MINO, Mino mantle cell lymphoma cells; read-out: IC50 (anti-proliferation) Mino cells
Procedure, shortened: (§1)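 Mino and JeKo-1 mantle B-cell lymphoma lines were exposed to compound at 0, 0.001, 0.01, 0.1, 1 and 10 μM for 72 h. Viability was read by MTS reduction to formazan, measured as absorbance at 490 nm.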

JeKo-1 cells = test: Antiproliferative effect, MTS cell viability assay, JeKo-1 cells; assay type: cell-based; conditions: Homo sapiens; JeKo-1 mantle cell lymphoma cells; read-out: IC50 (anti-proliferation) JeKO-1 cells
Procedure, shortened: as §1

[1] = read-out: DC50 (BTK degradation), concentration giving 50% reduction of BTK expression level
[2] = read-out: Dmax (BTK degradation)

BTK, sequence (Q06187 whole entry): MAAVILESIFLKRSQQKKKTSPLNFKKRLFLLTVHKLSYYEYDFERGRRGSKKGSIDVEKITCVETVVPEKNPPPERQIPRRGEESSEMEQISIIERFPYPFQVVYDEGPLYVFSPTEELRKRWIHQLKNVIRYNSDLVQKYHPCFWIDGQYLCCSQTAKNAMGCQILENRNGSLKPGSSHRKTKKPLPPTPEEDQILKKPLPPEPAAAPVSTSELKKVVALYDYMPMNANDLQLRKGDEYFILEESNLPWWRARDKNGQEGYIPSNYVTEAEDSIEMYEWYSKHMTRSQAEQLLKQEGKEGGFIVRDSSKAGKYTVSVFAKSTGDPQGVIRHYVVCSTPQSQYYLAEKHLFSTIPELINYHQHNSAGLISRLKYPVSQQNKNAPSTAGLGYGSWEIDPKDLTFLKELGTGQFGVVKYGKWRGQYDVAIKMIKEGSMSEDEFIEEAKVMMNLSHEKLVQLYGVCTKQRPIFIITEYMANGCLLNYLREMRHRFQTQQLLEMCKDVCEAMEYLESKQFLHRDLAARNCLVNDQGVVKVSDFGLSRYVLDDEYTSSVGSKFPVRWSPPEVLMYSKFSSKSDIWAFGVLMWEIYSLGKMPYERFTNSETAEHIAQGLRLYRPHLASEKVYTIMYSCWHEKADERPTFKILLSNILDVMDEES

| Compound | DC50 (BTK; [1]) | Dmax (BTK; [2]) | IC50 (Mino cells) | IC50 (JeKo-1 cells) | Dmax (BTK) | DC50 (BTK; BTK degradation) |
| --- | --- | --- | --- | --- | --- | --- |
| Nc1ncnc2c1c(-c1ccc(Oc3ccccc3)cc1)nn2C1CCN(CC2CCN(CC3CCN(c4ccc(N5CCC(=O)NC5=O)cc4)CC3)C2)CC1 (stereo not drawn) [Compound 547, 1-(4-(4-((3-((4-(4-amino-3-(4-phenoxyphenyl)-1H-pyrazolo[3,4-d]pyrimidin-1-yl)piperidin-1-yl)methyl)pyrrolidin-1-yl)methyl)piperidin-1-yl)phenyl)dihydropyrimidine-2,4(1H,3H)-dione] | < 10 nM | > 90% | 1000 to 10000 nM | 1000 to 10000 nM | – | – |
| NC(=O)c1c(-c2ccc(Oc3ccccc3)cc2)nn2c1NCC[C@H]2C1CCN(CC2CCN(C(=O)N3CCC(CC4CCN(c5ccc6c(c5)CN(C5CCC(=O)NC5=O)C6=O)CC4)CC3)CC2)CC1 (stereo partly drawn) [Compound 414, (7S)-7-(1-((1-(4-((1-(2-(2,6-dioxopiperidin-3-yl)-1-oxoisoindolin-5-yl)piperidin-4-yl)methyl)piperidine-1-carbonyl)piperidin-4-yl)methyl)piperidin-4-yl)-2-(4-phenoxyphenyl)-4,5,6,7-tetrahydropyrazolo[1,5-a]pyrimidine-3-carboxamide] | < 10 nM | > 90% | < 1000 nM | < 1000 nM | – | – |
| Nc1ncnc2c1c(-c1ccc(Oc3ccccc3)cc1)nn2[C@@H]1CCCN(C2CCN(C(=O)N3CCC(CCCC4CCN(c5ccc6c(c5)CN(C5CCC(=O)NC5=O)C6=O)CC4)CC3)CC2)C1 (stereo partly drawn) [Compound 196, 3-(5-(4-(3-(1-((R)-3-(4-amino-3-(4-phenoxyphenyl)-1H-pyrazolo[3,4-d]pyrimidin-1-yl)-[1,4′-bipiperidine]-1′-carbonyl)piperidin-4-yl)propyl)piperidin-1-yl)-1-oxoisoindolin-2-yl)piperidine-2,6-dione] | – | – | 1000 to 10000 nM | 1000 to 10000 nM | > 75% | 10 to 50 nM |
| NC(=O)c1c(-c2ccc(Oc3ccccc3)cc2)nn2c1NCCC2C1CCN(C2CCN(C(=O)N3CCC(C4CCN(c5ccc6c(c5)CN(C5CCC(=O)NC5=O)C6=O)CC4)CC3)CC2)CC1 (stereo not drawn) [Compound 344, 7-(1′-(1′-(2-(2,6-dioxopiperidin-3-yl)-1-oxoisoindolin-5-yl)-[4,4′-bipiperidine]-1-carbonyl)-[1,4′-bipiperidin]-4-yl)-2-(4-phenoxyphenyl)-4,5,6,7-tetrahydropyrazolo[1,5-a]pyrimidine-3-carboxamide] | – | – | 1000 to 10000 nM | < 1000 nM | > 90% | < 10 nM |
| Nc1ncnc2c1c(-c1ccc(Oc3ccccc3)cc1)nn2C1CCN(C2CCN(C(=O)N3CCC(c4ccc5c(c4)CN(C4CCC(=O)NC4=O)C5=O)CC3)CC2)CC1 (stereo not drawn) [Compound 228, 3-(5-(1-(4-(4-amino-3-(4-phenoxyphenyl)-1H-pyrazolo[3,4-d]pyrimidin-1-yl)-[1,4′-bipiperidine]-1′-carbonyl)piperidin-4-yl)-1-oxoisoindolin-2-yl)piperidine-2,6-dione] | – | – | > 10000 nM | > 10000 nM | > 50% | > 50 nM |
| Nc1ncnc2c1c(-c1ccc(Oc3ccccc3)cc1)nn2C1CCN(CCN2CCC(CN3CCN(c4ccc5c(c4)CN(C4CCC(=O)NC4=O)C5=O)CC3)C2)CC1 (stereo not drawn) [Compound 456, 3-(5-(4-((1-(2-(4-(4-amino-3-(4-phenoxyphenyl)-1H-pyrazolo[3,4-d]pyrimidin-1-yl)piperidin-1-yl)ethyl)pyrrolidin-3-yl)methyl)piperazin-1-yl)-1-oxoisoindolin-2-yl)piperidine-2,6-dione] | 10 to 50 nM | > 75% | 1000 to 10000 nM | 1000 to 10000 nM | – | – |
| Nc1ncnc2c1c(-c1ccc(Oc3ccccc3)cc1)nn2C1CCN(CC2CN(C[C@@H]3CCN(c4ccc5c(c4)C(=O)N(C4CCC(=O)NC4=O)C5=O)C3)C2)CC1 (stereo partly drawn) [Compound 443b, 5-((S)-3-((3-((4-(4-amino-3-(4-phenoxyphenyl)-1H-pyrazolo[3,4-d]pyrimidin-1-yl)piperidin-1-yl)methyl)azetidin-1-yl)methyl)pyrrolidin-1-yl)-2-(2,6-dioxopiperidin-3-yl)isoindoline-1,3-dione] | < 10 nM | > 90% | < 1000 nM | < 1000 nM | – | – |
| NC(=O)c1c(-c2ccc(Oc3ccccc3)cc2)nn2c1NCCC2C1CCN(CC2CCN(C(=O)N3CCC(N4CCC(c5ccc6c(c5)CN(C5CCC(=O)NC5=O)C6=O)CC4)CC3)CC2)CC1 (stereo not drawn) [Compound 368, 7-(1-((1-(4-(2-(2,6-dioxopiperidin-3-yl)-1-oxoisoindolin-5-yl)-[1,4′-bipiperidine]-1′-carbonyl)piperidin-4-yl)methyl)piperidin-4-yl)-2-(4-phenoxyphenyl)-4,5,6,7-tetrahydropyrazolo[1,5-a]pyrimidine-3-carboxamide] | – | – | < 1000 nM | 1000 to 10000 nM | > 90% | < 10 nM |
| NC(=O)c1c(-c2ccc(Oc3ccccc3)cc2)nn2c1NCC[C@H]2C1CCN(CCOCCOCCN2CCN(c3ccc4c(c3)CN(C3CCC(=O)NC3=O)C4=O)CC2)CC1 (stereo partly drawn) [Compound 272, (7S)-7-(1-(2-(2-(2-(4-(2-(2,6-dioxopiperidin-3-yl)-1-oxoisoindolin-5-yl)piperazin-1-yl)ethoxy)ethoxy)ethyl)piperidin-4-yl)-2-(4-phenoxyphenyl)-4,5,6,7-tetrahydropyrazolo[1,5-a]pyrimidine-3-carboxamide] | – | – | 1000 to 10000 nM | > 10000 nM | > 90% | 10 to 50 nM |
| Nc1ncnc2c1c(-c1ccc(Oc3ccccc3)cc1)nn2C1CCN(C2CCN(C(=O)N3CCC(CCCN4CCN(c5ccc6c(c5)CN(C5CCC(=O)NC5=O)C6=O)CC4)CC3)CC2)CC1 (stereo not drawn) [Compound 264, 3-(5-(4-(3-(1-(4-(4-amino-3-(4-phenoxyphenyl)-1H-pyrazolo[3,4-d]pyrimidin-1-yl)-[1,4′-bipiperidine]-1′-carbonyl)piperidin-4-yl)propyl)piperazin-1-yl)-1-oxoisoindolin-2-yl)piperidine-2,6-dione] | – | – | 1000 to 10000 nM | > 10000 nM | > 75% | 10 to 50 nM |
| NC(=O)c1c(-c2ccc(Oc3ccccc3)cc2)nn2c1NCC[C@H]2C1CCN(C2CCN(C(=O)N3CCN(CC4CCN(c5ccc6c(c5)CN(C5CCC(=O)NC5=O)C6=O)CC4)CC3)CC2)CC1 (stereo partly drawn) [Compound 392, (7S)-7-(1′-(4-((1-(2-(2,6-dioxopiperidin-3-yl)-1-oxoisoindolin-5-yl)piperidin-4-yl)methyl)piperazine-1-carbonyl)-[1,4′-bipiperidin]-4-yl)-2-(4-phenoxyphenyl)-4,5,6,7-tetrahydropyrazolo[1,5-a]pyrimidine-3-carboxamide] | – | – | < 1000 nM | 1000 to 10000 nM | > 90% | 10 to 50 nM |
| NC(=O)c1c(-c2ccc(Oc3ccccc3)cc2)nn2c1NCCC2C1CCN(C2CCN(CCC3CCN(c4ccc5c(c4)CN(C4CCC(=O)NC4=O)C5=O)CC3)CC2)CC1 (stereo not drawn) [Compound 310, 7-(1′-(2-(1-(2-(2,6-dioxopiperidin-3-yl)-1-oxoisoindolin-5-yl)piperidin-4-yl)ethyl)-[1,4′-bipiperidin]-4-yl)-2-(4-phenoxyphenyl)-4,5,6,7-tetrahydropyrazolo[1,5-a]pyrimidine-3-carboxamide] | – | – | > 10000 nM | > 10000 nM | > 75% | 10 to 50 nM |
